Test results as given in ChEMBL document CHEMBL1201862, “PubChem BioAssay data set” (2004).
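In this assay, cells in 96-well plates receive the compound at five concentrations for 48 hours. Endpoints are linearly interpolated between the surrounding concentrations. GI50 marks 50% less growth.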 Activity calls are given as the source filed them. No stated cut-off is given here; in the data, active = GI50 up to about 1.1 µM and inactive = higher.

Legend:
Assay in all cases: growth of human tumour cells (NCI), 48 h
HOP-62 = system: HOP-62
SF-268 = system: SF-268
HT-29 = system: HT-29
DU-145 = system: DU-145
ACHN = system: ACHN
SK-MEL-5 = system: SK-MEL-5
NCI-H460 = system: NCI-H460
OVCAR-8 = system: OVCAR-8
OVCAR-4 = system: OVCAR-4
Malme-3M = system: Malme-3M
A549 = system: A549
HCT-116 = system: HCT-116
SK-MEL-28 = system: SK-MEL-28
SF-295 = system: SF-295
A498 = system: A498
T47D = system: T47D
LOX IMVI = system: LOX IMVI
UACC-62 = system: UACC-62
MDA-MB-231 = system: MDA-MB-231
MDA-MB-435 = system: MDA-MB-435

CCC(=O)C1(c2ccccc2)CCN(C)CC1
GI50 (HOP-62): > 100 µM (inactive)
GI50 (SF-268): > 100 µM (inactive)
GI50 (HT-29): > 100 µM (inactive)
GI50 (DU-145): > 100 µM (inactive)
GI50 (ACHN): > 100 µM (inactive)
GI50 (SK-MEL-5): > 100 µM (inactive)
GI50 (NCI-H460): > 100 µM (inactive)
GI50 (OVCAR-8): > 100 µM (inactive)
GI50 (OVCAR-4): > 100 µM (inactive)
GI50 (Malme-3M): > 100 µM (inactive)
GI50 (A549): > 100 µM (inactive)
GI50 (HCT-116): > 100 µM (inactive)
GI50 (SK-MEL-28): > 100 µM (inactive)
GI50 (SF-295): > 100 µM (inactive)
GI50 (A498): > 100 µM (inactive)
GI50 (T47D): > 100 µM (inactive)

NC(CSC(c1ccccc1)(c1ccccc1)c1ccccc1)C(=O)O (stereo not drawn)
GI50 (HOP-62): 1.43 µM (inactive)
GI50 (SF-268): 1.27 µM (inactive)
GI50 (LOX IMVI): 0.802 µM (active)
GI50 (HT-29): 2.94 µM (inactive)
GI50 (ACHN): 7.89 µM (inactive)
GI50 (SK-MEL-5): 0.69 µM (active)
GI50 (NCI-H460): 0.658 µM (active)
GI50 (OVCAR-8): 0.904 µM (active)
GI50 (OVCAR-4): 7.5 µM (inactive)
GI50 (UACC-62): 0.685 µM (active)
GI50 (Malme-3M): 2.17 µM (inactive)
GI50 (A549): 0.822 µM (active)
GI50 (HCT-116): 0.615 µM (active)
GI50 (MDA-MB-231): 1.42 µM (inactive)
GI50 (SK-MEL-28): 10 µM (inactive)
GI50 (MDA-MB-435): 0.333 µM (active)
GI50 (A498): 1.51 µM (inactive)
GI50 (T47D): 0.684 µM (active)

N/C(=N\c1ccccc1)c1ccccc1N
GI50 (HOP-62): > 100 µM (inactive)
GI50 (SF-268): > 100 µM (inactive)
GI50 (LOX IMVI): > 100 µM (inactive)
GI50 (HT-29): > 100 µM (inactive)
GI50 (DU-145): > 100 µM (inactive)
GI50 (ACHN): > 100 µM (inactive)
GI50 (SK-MEL-5): > 100 µM (inactive)
GI50 (NCI-H460): > 100 µM (inactive)
GI50 (OVCAR-8): > 100 µM (inactive)
GI50 (OVCAR-4): > 100 µM (inactive)
GI50 (UACC-62): > 100 µM (inactive)
GI50 (A549): > 100 µM (inactive)
GI50 (HCT-116): > 100 µM (inactive)
GI50 (MDA-MB-231): > 100 µM (inactive)
GI50 (SK-MEL-28): 19.6 µM (inactive)
GI50 (SF-295): > 100 µM (inactive)
GI50 (MDA-MB-435): > 100 µM (inactive)
GI50 (A498): > 100 µM (inactive)

COc1ccc(NC(=O)CSC(=O)c2ccccc2)c(SCCSSCCSc2cc(OC)ccc2NC(=O)CSC(=O)c2ccccc2)c1
GI50 (HOP-62): > 100 µM (inactive)
GI50 (SF-268): 67.5 µM (inactive)
GI50 (LOX IMVI): 20.7 µM (inactive)
GI50 (HT-29): > 100 µM (inactive)
GI50 (DU-145): > 100 µM (inactive)
GI50 (ACHN): > 100 µM (inactive)
GI50 (SK-MEL-5): > 100 µM (inactive)
GI50 (NCI-H460): 4.62 µM (inactive)
GI50 (OVCAR-8): > 100 µM (inactive)
GI50 (OVCAR-4): 6.44 µM (inactive)
GI50 (UACC-62): > 100 µM (inactive)
GI50 (Malme-3M): 69.3 µM (inactive)
GI50 (A549): > 100 µM (inactive)
GI50 (HCT-116): 48.8 µM (inactive)
GI50 (SF-295): > 100 µM (inactive)
GI50 (MDA-MB-435): > 100 µM (inactive)
GI50 (A498): > 100 µM (inactive)
GI50 (T47D): 28.7 µM (inactive)

CCOC(=O)/C1=C(\C)N(Cc2ccccc2)C(=O)c2ccccc2C(=O)c2c(OC(C)=O)ccc(OC(C)=O)c21
GI50 (HOP-62): 40.6 µM (inactive)
GI50 (SF-268): 43.6 µM (inactive)
GI50 (LOX IMVI): > 100 µM (inactive)
GI50 (HT-29): 40.2 µM (inactive)
GI50 (ACHN): > 100 µM (inactive)
GI50 (SK-MEL-5): 33.3 µM (inactive)
GI50 (NCI-H460): 39.4 µM (inactive)
GI50 (OVCAR-8): 67.8 µM (inactive)
GI50 (OVCAR-4): 24.9 µM (inactive)
GI50 (UACC-62): 53.2 µM (inactive)
GI50 (Malme-3M): 69.8 µM (inactive)
GI50 (A549): 36.4 µM (inactive)
GI50 (MDA-MB-231): > 100 µM (inactive)
GI50 (SK-MEL-28): > 100 µM (inactive)
GI50 (SF-295): 29 µM (inactive)
GI50 (MDA-MB-435): 47.6 µM (inactive)
GI50 (A498): > 100 µM (inactive)
GI50 (T47D): > 100 µM (inactive)

COC(=O)/C(=N\N)C(C(=O)C(=O)Nc1nnc(S)[nH]1)c1nc2ccc([N+](=O)[O-])cc2nc1O (stereo not drawn)
GI50 (HOP-62): > 100 µM (inactive)
GI50 (SF-268): > 100 µM (inactive)
GI50 (LOX IMVI): > 100 µM (inactive)
GI50 (HT-29): > 100 µM (inactive)
GI50 (ACHN): > 100 µM (inactive)
GI50 (SK-MEL-5): > 100 µM (inactive)
GI50 (NCI-H460): > 100 µM (inactive)
GI50 (OVCAR-8): > 100 µM (inactive)
GI50 (OVCAR-4): > 100 µM (inactive)
GI50 (UACC-62): > 100 µM (inactive)
GI50 (Malme-3M): > 100 µM (inactive)
GI50 (A549): > 100 µM (inactive)
GI50 (HCT-116): > 100 µM (inactive)
GI50 (SK-MEL-28): > 100 µM (inactive)
GI50 (SF-295): > 100 µM (inactive)
GI50 (A498): > 100 µM (inactive)

CCOC(=O)/C(C[C@H]1OC(C)(C)O[C@@H]1[C@H]1COC(C)(C)O1)=N/O
GI50 (HOP-62): > 100 µM (inactive)
GI50 (SF-268): > 100 µM (inactive)
GI50 (LOX IMVI): > 100 µM (inactive)
GI50 (HT-29): > 100 µM (inactive)
GI50 (DU-145): > 100 µM (inactive)
GI50 (ACHN): > 100 µM (inactive)
GI50 (SK-MEL-5): > 100 µM (inactive)
GI50 (NCI-H460): > 100 µM (inactive)
GI50 (OVCAR-8): > 100 µM (inactive)
GI50 (OVCAR-4): > 100 µM (inactive)
GI50 (UACC-62): > 100 µM (inactive)
GI50 (Malme-3M): > 100 µM (inactive)
GI50 (A549): > 100 µM (inactive)
GI50 (HCT-116): > 100 µM (inactive)
GI50 (MDA-MB-231): > 100 µM (inactive)
GI50 (SK-MEL-28): > 100 µM (inactive)
GI50 (SF-295): > 100 µM (inactive)
GI50 (MDA-MB-435): > 100 µM (inactive)
GI50 (A498): > 100 µM (inactive)

COc1c(OC(C)C)c(OC(C)C)c2oc(=O)n3c2c1C(c1ccccc1-n1c(C)ccc1C)C=C3 (stereo not drawn)
GI50 (HOP-62): 30.5 µM (inactive)
GI50 (SF-268): 38.1 µM (inactive)
GI50 (LOX IMVI): 21.5 µM (inactive)
GI50 (HT-29): 12.6 µM (inactive)
GI50 (DU-145): 60.4 µM (inactive)
GI50 (ACHN): 48.8 µM (inactive)
GI50 (SK-MEL-5): 98.4 µM (inactive)
GI50 (NCI-H460): 41.9 µM (inactive)
GI50 (OVCAR-8): 35.3 µM (inactive)
GI50 (OVCAR-4): 75 µM (inactive)
GI50 (UACC-62): 44.7 µM (inactive)
GI50 (Malme-3M): 13 µM (inactive)
GI50 (A549): 39.4 µM (inactive)
GI50 (HCT-116): 16.7 µM (inactive)
GI50 (MDA-MB-231): 45 µM (inactive)
GI50 (SK-MEL-28): 37.8 µM (inactive)
GI50 (SF-295): 74.3 µM (inactive)
GI50 (MDA-MB-435): 35.2 µM (inactive)
GI50 (A498): 92.5 µM (inactive)

CCCCCCCCCCCCCC(=O)OCC1OC(OC)C(NC(=O)N(CCCl)N=O)C(O)C1O (stereo not drawn)
GI50 (HOP-62): 17.2 µM (inactive)
GI50 (SF-268): 7.96 µM (inactive)
GI50 (LOX IMVI): 10.1 µM (inactive)
GI50 (HT-29): 19.9 µM (inactive)
GI50 (ACHN): 10.5 µM (inactive)
GI50 (SK-MEL-5): 16.2 µM (inactive)
GI50 (NCI-H460): 4.93 µM (inactive)
GI50 (OVCAR-8): 21.8 µM (inactive)
GI50 (OVCAR-4): 20.6 µM (inactive)
GI50 (UACC-62): 1.97 µM (inactive)
GI50 (Malme-3M): 27 µM (inactive)
GI50 (A549): 15.6 µM (inactive)
GI50 (HCT-116): 14.3 µM (inactive)
GI50 (SK-MEL-28): 25.3 µM (inactive)
GI50 (SF-295): 7.43 µM (inactive)
GI50 (A498): 27.1 µM (inactive)

O=[N+]([O-])c1ccc(C2CC(c3ccccc3Cl)=Nc3ccccc3S2)cc1 (stereo not drawn)
GI50 (HOP-62): 22.3 µM (inactive)
GI50 (SF-268): 4.15 µM (inactive)
GI50 (LOX IMVI): 3.7 µM (inactive)
GI50 (HT-29): 4.35 µM (inactive)
GI50 (ACHN): 7.85 µM (inactive)
GI50 (SK-MEL-5): 3.95 µM (inactive)
GI50 (NCI-H460): 6.85 µM (inactive)
GI50 (OVCAR-8): 2.2 µM (inactive)
GI50 (OVCAR-4): 9.84 µM (inactive)
GI50 (UACC-62): 3.99 µM (inactive)
GI50 (Malme-3M): 10.9 µM (inactive)
GI50 (A549): 5.69 µM (inactive)
GI50 (HCT-116): 1.96 µM (inactive)
GI50 (SK-MEL-28): 8.34 µM (inactive)
GI50 (SF-295): 7.5 µM (inactive)
GI50 (A498): 1.87 µM (inactive)

COc1cc(O)c(C(C)=O)c(O)c1
GI50 (HOP-62): > 100 µM (inactive)
GI50 (SF-268): 69.8 µM (inactive)
GI50 (LOX IMVI): 75.9 µM (inactive)
GI50 (HT-29): > 100 µM (inactive)
GI50 (DU-145): 64.9 µM (inactive)
GI50 (ACHN): 42.7 µM (inactive)
GI50 (SK-MEL-5): 35.3 µM (inactive)
GI50 (NCI-H460): 88.1 µM (inactive)
GI50 (OVCAR-8): 55.2 µM (inactive)
GI50 (OVCAR-4): 76.2 µM (inactive)
GI50 (UACC-62): 46.1 µM (inactive)
GI50 (Malme-3M): > 100 µM (inactive)
GI50 (A549): > 100 µM (inactive)
GI50 (HCT-116): 55 µM (inactive)
GI50 (SK-MEL-28): 52.6 µM (inactive)
GI50 (SF-295): 92.5 µM (inactive)
GI50 (MDA-MB-435): 82.6 µM (inactive)
GI50 (A498): 80.5 µM (inactive)
GI50 (T47D): 25.6 µM (inactive)
